Assay [1] concerns the target recombinant human NF-kappaB-inducing kinase (NIK/MAP3K14) (Homo sapiens (Human), UniProt Q99558). Nature of the assay: Inhibition of auto-phosphorylation of recombinant human NIK/MAP3K14 (AlphaScreen). In kind it is biochemical. Conditions: NIK auto-phosphorylation, 5 μM ATP, 1 nM NIK, 2 h at 25° C.; average of values. The method, boiled down: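 GST-tagged NIK (1 nM) auto-phosphorylated with 5 μM ATP for 2 h at 25° C. in 50 mM Tris pH 7.5, 5 mM MgCl2, 1 mM EGTA, 1 mM DTT, 0.1 mM Na3VO4, 0.01% Tween 20 (0.7% DMSO). Detected by AlphaScreen via anti-phospho-IKK Ser176/180 antibody; IC50 from sigmoidal fit of % inhibition versus log concentration.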

Assay [2] concerns p-IKKα levels in L363 (NIK translocated multiple myeloma) cells. The experiment in a line: Effect of compounds on p-IKKα levels in L363 cells (AlphaLISA SureFire Ultra). In kind it is cell-based, human. Conditions: Homo sapiens, L-363, 6 h, BAFF stimulated, MG132, 6 h, average of values, read-out: Assay 2 IC50. In outline: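 Inhibition of p-IKKα (Ser176/180) read by AlphaLISA after 6 h, 37 °C compound exposure (11-point 1:3 series, 0.3% DMSO) of L363 cells pre-incubated overnight ± 250 ng/ml BAFF and plated ± BAFF ± 10 μM MG132. Normalised to BAFF/MG132/DMSO and unstimulated controls; IC50 by sigmoidal fitting, duplicates.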

Chain of recombinant human NF-kappaB-inducing kinase (NIK/MAP3K14) (Q99558 whole entry): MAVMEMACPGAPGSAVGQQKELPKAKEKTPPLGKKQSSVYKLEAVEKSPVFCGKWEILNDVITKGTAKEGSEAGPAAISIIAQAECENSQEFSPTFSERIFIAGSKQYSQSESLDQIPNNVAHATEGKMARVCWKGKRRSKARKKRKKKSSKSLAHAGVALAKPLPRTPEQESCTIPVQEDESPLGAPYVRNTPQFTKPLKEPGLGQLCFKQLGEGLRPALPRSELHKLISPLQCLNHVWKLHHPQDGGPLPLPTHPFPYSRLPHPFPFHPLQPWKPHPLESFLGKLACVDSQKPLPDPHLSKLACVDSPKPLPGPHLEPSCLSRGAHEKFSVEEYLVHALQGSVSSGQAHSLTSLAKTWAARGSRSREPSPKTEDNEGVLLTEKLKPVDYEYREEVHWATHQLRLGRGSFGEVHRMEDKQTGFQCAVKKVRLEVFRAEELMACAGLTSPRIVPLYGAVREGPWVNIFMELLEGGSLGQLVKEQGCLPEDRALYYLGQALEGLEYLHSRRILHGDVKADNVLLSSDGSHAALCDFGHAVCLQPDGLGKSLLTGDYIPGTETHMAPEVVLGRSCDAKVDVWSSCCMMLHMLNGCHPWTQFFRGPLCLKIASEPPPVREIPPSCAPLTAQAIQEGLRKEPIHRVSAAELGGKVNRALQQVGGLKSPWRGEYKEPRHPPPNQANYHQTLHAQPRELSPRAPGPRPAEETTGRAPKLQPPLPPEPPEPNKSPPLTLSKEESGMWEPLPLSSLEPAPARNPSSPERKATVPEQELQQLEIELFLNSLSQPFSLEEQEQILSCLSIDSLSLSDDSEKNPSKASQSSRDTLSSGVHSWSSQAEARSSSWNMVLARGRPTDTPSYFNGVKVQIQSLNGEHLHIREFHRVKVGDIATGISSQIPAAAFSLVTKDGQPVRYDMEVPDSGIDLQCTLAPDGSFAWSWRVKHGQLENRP

For the compound `Cc1nc(N)c2nc(-c3cccc(C#C[C@@]4(O)CCN(C)C4=O)c3)ccc2n1` [Example 7, (S)-3-((3-(4-Amino-2-methylpyrido[3,2-d]pyrimidin-6-yl)phenyl)ethynyl)-3-hydroxy-1-methylpyrrolidin-2-one], the values for the 50% inhibitory concentration (IC50) in assay [1] and in assay [2] were 170 nM and 2300 nM, respectively.
The like results for `CN1CC[C@@](O)(C#Cc2cccc(-c3cnc4ncnc(N)c4c3)c2)C1=O` [Example 109, (R)-3-((3-(4-Aminopyrido[2,3-d]pyrimidin-6-yl)phenyl)ethynyl)-3-hydroxy-1-methylpyrrolidin-2-one] were, in that order, 13 nM and more than 5000 nM.
The like results for `CC1(C)CC[C@@](O)(C#Cc2cccc(-c3ccc4ncnc(N)c4n3)c2)C1=O` [Example 131, (R)-2-[2-[3-(4-Aminopyrido[3,2-d]pyrimidin-6-yl)phenyl]ethynyl]-2-hydroxy-5,5-dimethyl-cyclopentanone] were, in that order, not above 0.5 nM and 47 nM.
With `C=CCN1CCC(O)(C#Cc2cccc(-c3ccc4nc(C)nc(N)c4n3)c2)C1=O` (racemic) [Example 195, racemic-1-Allyl-3-((3-(4-amino-2-methylpyrido[3,2-d]pyrimidin-6-yl)phenyl)ethynyl)-3-hydroxypyrrolidin-2-one], the concentration for half-maximal inhibition (IC50) stood at 21 nM in assay [1] and 1130 nM in assay [2].
Turning to `CN1CC[C@@](O)(C#Cc2cccc(-c3ncc4ccnc(N)c4n3)c2)C1=O` [Example 1, (R)-3-[2-[3-(8-Aminopyrido[3,4-d]pyrimidin-2-yl)phenyl]ethynyl]-3-hydroxy-1-methyl-pyrrolidin-2-one], the half-maximal inhibitory concentration (IC50) in assay [1] is not above 0.5 nM; in assay [2], 3.7 nM.
Taken in the same sequence, the figures for `Cc1nc(N)c2nc(-c3cccc(C#C[C@](C)(O)c4cscn4)c3)ccc2n1` [Example 209, (S)-4-[3-(4-Amino-2-methyl-pyrido[3,2-d]pyrimidin-6-yl)phenyl]-2-thiazol-4-yl-but-3-yn-2-ol] were 110 nM and more than 5000 nM.
The like results for `CCc1nc(N)c2nc(-c3cccc(C#C[C@]4(O)CCN(C)C4=O)c3)ccc2n1` [Example 210, (R)-3-((3-(4-Amino-2-ethylpyrido[3,2-d]pyrimidin-6-yl)phenyl)ethynyl)-3-hydroxy-1-methylpyrrolidin-2-one] were, in that order, 0.8 nM and 45 nM.
Taken in the same sequence, the figures for `Cc1nc(N)c2nc(-c3cccc(C#C[C@@](C)(O)c4ncc(C)s4)c3)ccc2n1` [Example 167, (R)-4-(3-(4-Amino-2-methylpyrido[3,2-d]pyrimidin-6-yl)phenyl)-2-(5-methylthiazol-2-yl)but-3-yn-2-ol] were 12 nM and 3470 nM.
Take `Cc1cnc(N)c2nc(-c3cccc(C#C[C@]4(O)CCN(C)C4=O)c3)nc(C)c12` [Example 138, (R)-3-((3-(8-Amino-4,5-dimethylpyrido[3,4-d]pyrimidin-2-yl)phenyl)ethynyl)-3-hydroxy-1-methylpyrrolidin-2-one]: the figures for the 50% inhibitory concentration (IC50) in assay [1] and in assay [2] were not above 0.5 nM and 9.6 nM, respectively.
Taken in the same sequence, the figures for `Nc1nccc2cnc(-c3cccc(C#CC4(O)CCN(CC(F)(F)F)C4=O)c3)nc12` (stereo in doubt) [Example 73, (S)-3-[2-[3-(8-Aminopyrido[3,4-d]pyrimidin-2-yl)phenyl]ethynyl]-3-hydroxy-1-(2,2,2-trifluoroethyl)pyrrolidin-2-one] were 1730 nM and more than 5000 nM.
The like results for `Cc1ccc(C#C[C@@](C)(O)c2nccs2)cc1-c1ncc2ccnc(N)c2n1` [Example 69, (R)-4-(3-(8-Aminopyrido[3,4-d]pyrimidin-2-yl)-4-methylphenyl)-2-(thiazol-2-yl)but-3-yn-2-ol] were, in that order, 1 nM and 150 nM.
As for `CN1CC[C@@](O)(C#Cc2cccc(-c3cc4c(N)nccc4cn3)c2)C1=O` [Example 119, (R)-3-[2-[3-(5-Amino-2,6-naphthyridin-3-yl)phenyl]ethynyl]-3-hydroxy-1-methyl-pyrrolidin-2-one], the 50% inhibitory concentration (IC50) in assay [1] turned out to be 0.7 nM; in assay [2] it was 43 nM.
The like results for `[2H]c1nc(N)c2nc(-c3cccc(C#C[C@]4(O)CCN(C)C4=O)c3)nc(C)c2n1` [Example 168, (R)-3-((3-(8-Amino-4-methylpyrimido[5,4-d]pyrimidin-2-yl-6-d)phenyl)ethynyl)-3-hydroxy-1-methylpyrrolidin-2-one] were, in that order, 2.2 nM and 4.2 nM.
With `Cc1nc(N)c2nc(-c3cccc(C#C[C@@](C)(O)c4nnc(C)o4)c3)ccc2n1` [Example 213, (R)-4-(3-(4-Amino-2-methylpyrido[3,2-d]pyrimidin-6-yl)phenyl)-2-(5-methyl-1,3,4-oxadiazol-2-yl)but-3-yn-2-ol], the IC50 in assay [1] stood at 18 nM; in assay [2], 1080 nM.
Taken in the same sequence, the figures for `CN1CC[C@@](O)(C#Cc2cccc(-c3cc(OCCC(F)(F)F)c4ncnc(N)c4n3)c2)C1=O` [Example 306, (R)-3-[2-[3-[4-Amino-8-(3,3,3-trifluoropropoxy)pyrido[3,2-d]pyrimidin-6-yl]phenyl]ethynyl]-3-hydroxy-1-methyl-pyrrolidin-2-one] were 1.9 nM and 26 nM.
`CN1CC[C@@](O)(C#Cc2cccc(-c3cc(Oc4cnn(C(F)F)c4)c4ncnc(N)c4n3)c2)C1=O` [Example 305, (R)-3-[2-[3-[4-Amino-8-[1-(difluoromethyl)pyrazol-4-yl]oxy-pyrido[3,2-d]pyrimidin-6-yl]phenyl]ethynyl]-3-hydroxy-1-methyl-pyrrolidin-2-one]: the IC50 in assay [1] came out at 2.2 nM; in assay [2], 64 nM.
The like results for `CN1CC[C@@](O)(C#Cc2cccc(-c3ccc4nc(CO)nc(N)c4n3)c2)C1=O` [Example 173, (R)-3-((3-(4-Amino-2-(hydroxymethyl)pyrido[3,2-d]pyrimidin-6-yl)phenyl)ethynyl)-3-hydroxy-1-methylpyrrolidin-2-one] were, in that order, 12 nM and 180 nM.
Taken in the same sequence, the figures for `CN1CC[C@@](O)(C#Cc2cccc(-c3cc(C4CCC4)c4ncnc(N)c4n3)c2)C1=O` [Example 309, (R)-3-((3-(4-Amino-8-cyclobutylpyrido[3,2-d]pyrimidin-6-yl)phenyl)ethynyl)-3-hydroxy-1-methylpyrrolidin-2-one] were not above 0.5 nM and 9.7 nM.
The like results for `CN1CC[C@@](O)(C#Cc2cccc(-c3ccc4[nH]nc(N)c4c3)c2)C1=O` [Example 174, (R)-3-[2-[3-(3-Amino-1H-indazol-5-yl)phenyl]ethynyl]-3-hydroxy-1-methyl-pyrrolidin-2-one] were, in that order, 830 nM and more than 5000 nM.
As to `[2H]C([2H])([2H])N1CC[C@@](O)(C#Cc2cccc(-c3nc(C)c4ccnc(N)c4n3)c2)C1=O` [Example 83, (R)-3-((3-(8-Amino-4-methylpyrido[3,4-d]pyrimidin-2-yl)phenyl)ethynyl)-3-hydroxy-1-(methyl-da)pyrrolidin-2-one], the results for the IC50 in assay [1] and in assay [2] were not above 0.5 nM and 3.2 nM, respectively.
Taken in the same sequence, the figures for `CN1CC[C@@](O)(C#Cc2cccc(-c3ccc4ncnc(N5CC(F)(F)C5)c4n3)c2)C1=O` [Example 232, (R)-3-((3-(4-(3,3-Difluoroazetidin-1-yl)pyrido[3,2-d]pyrimidin-6-yl)phenyl)ethynyl)-3-hydroxy-1-methylpyrrolidin-2-one] were 5.7 nM and 210 nM.
Taken in the same sequence, the figures for `Cc1ccc(C#C[C@]2(O)CCN(C)C2=O)cc1-c1nc2c(N)ncnc2s1` [Example 10, (R)-3-((3-(7-Aminothiazolo[5,4-d]pyrimidin-2-yl)-4-methylphenyl)ethynyl)-3-hydroxy-1-methylpyrrolidin-2-one] were not above 0.5 nM and 8.1 nM.
The like results for `CN1CC[C@@](O)(C#Cc2cccc(-c3ccc4ncnc(N5CC(F)C5)c4n3)c2)C1=O` [Example 239, (R)-3-((3-(4-(3-Fluoroazetidin-1-yl)pyrido[3,2-d]pyrimidin-6-yl)phenyl)ethynyl)-3-hydroxy-1-methylpyrrolidin-2-one] were, in that order, 1.5 nM and 69 nM.
Take `C[C@@](O)(C#Cc1cccc(-c2ncc3ccnc(N)c3n2)c1)c1nccs1` [Example 32, (R)-4-[3-(8-Aminopyrido[3,4-d]pyrimidin-2-yl)phenyl]-2-thiazol-2-yl-but-3-yn-2-ol]: the values for the IC50 in assay [1] and in assay [2] were not above 0.5 nM and 12 nM, respectively.
Taken in the same sequence, the figures for `CN1CC[C@@](O)(C#Cc2cccc(-c3ncc4c(Cl)cnc(N)c4n3)c2)C1=O` [Example 103, (R)-3-((3-(8-Amino-5-chloropyrido[3,4-d]pyrimidin-2-yl)phenyl)ethynyl)-3-hydroxy-1-methylpyrrolidin-2-one] were not above 0.5 nM and 5.8 nM.
Taken in the same sequence, the figures for `[2H]c1nc(N)c2nc(-c3cccc(C#C[C@]4(O)CCN(C)C4=O)c3)cc(C3CCCC3)c2n1` [Example 277, (R)-3-((3-(4-Amino-8-cyclopentylpyrido[3,2-d]pyrimidin-6-yl-2-d)phenyl)ethynyl)-3-hydroxy-1-methylpyrrolidin-2-one] were 0.7 nM and 13 nM.
The like results for `CC(C)Nc1cc(-c2cccc(C#C[C@]3(O)CCN(C)C3=O)c2)nc2c(N)ncnc12` [Example 297, (R)-3-[2-[3-[4-Amino-8-(isopropylamino)pyrido[3,2-d]pyrimidin-6-yl]phenyl]ethynyl]-3-hydroxy-1-methyl-pyrrolidin-2-one] were, in that order, 1.9 nM and 31 nM.

Source of the values: patent publication US20240199605A1, “SMALL MOLECULAR INHIBITORS OF NF-kB INDUCING KINASE” (Janssen Pharmaceutica NV, priority 2019, published 2024).
